Source: patent publication US10370436B2, “Anti-pseudomonas Psl binding molecules and uses thereof” (priority 2011, dated 2019)

Key:
[1] = test system: P. aeruginosa strain 6077; test: P. aeruginosa thermal injury model; assay type: in vivo, CF-1 mice; conditions: 15 and 5 mg/kg; versus antibody-treated control; FIG. 8E
Protocol: FIG. 8 (A-G): Anti-Psl monoclonal antibodies Cam-003 and WapR-004 are active in a P. aeruginosa keratitis model and thermal injury model. Mice were treated with a control IgG1 antibody or Cam-003 at 45 mg/kg (A, B) or 15 mg/kg (C, D) or PBS or a control IgG1 antibody or Cam-003 at 45 mg/kg or WapR-004 at 45 mg/kg or 15 mg/kg or 5 mg/kg (F, G) 24 hours prior to infection with 6077 (O11-cytotoxic—2×10^6 CFU). Immediately before infection, three 1 mm scratches were made on the left cornea of each animal followed by topical application of P. aeruginosa in a 5 μl inoculum. 24 hours after infection, the corneal pathology scores were calculated followed by removal of the eye for determination of viable CFU. Differences in pathology scores and viable CFU were determined by the Mann-Whitney U-test. (A) P=0.0001, (B) P<0.0001, (C) P=0.0003, (D) P=0.0015. (F) and (G) Cam-003 (45 mg/kg) vs. WapR-004 (45 mg/kg): P=0.018; Cam-003 (45 mg/kg) vs. WapR-004 (15 mg/kg): P=0.0025; WapR-004 (45 mg/kg) vs. WapR-004 (15 mg/kg): P=0.1331; WapR-004 (5 mg/kg) vs. Ctrl: P<0.0001. Results are representative of five independent experiments. (E) Survival analysis from Cam-003 and R347 treated CF-1 mice in a P. aeruginosa thermal injury model after 6077 infection (2×10^5 CFU) (log-rank: R347 vs. Cam-003 15 mg/kg, P=0.0094; R347 vs. Cam-003 5 mg/kg, P=0.0017). […]

[2] = test system: P. aeruginosa strain 6294; test: P. aeruginosa sepsis model; assay type: in vivo, C57Bl/6 mice
Protocol: C57Bl/6 mice (10 per group) were dosed with mAb or PMB-mAb conjugates i.p (10, 1 and 0.1 mg/kg) 6 h prior to i.p. challenge with LD80-100 dose of P. aeruginosa strain 6294 (4E7 CFU). Data from two studies was combined in this analysis. Survival was monitored over 72 h. Combined results of two studies are shown in FIGS. 21A-C: Most control mice dosed with A7 or buffer died by 24 h. […] Conversely, the conjugates were less protective than CAM-003 at the low dose of 0.1 mg/kg, and protective activity correlated with in vitro OPK activity of the conjugates (WT>SM>DM>TM).

Substance: Cam-003: human IgG1 anti-Psl monoclonal antibody, VH SEQ ID NO: 1 and VL SEQ ID NO: 2
- protection (survival) [1]: significant protection
- dose relation of protective activity ([2]; 10, 1 and 0.1 mg/kg): inversely correlated with dose
- protection ([2]; 10, 1 and 0.1 mg/kg i.p. 6 h prior to i.p. challenge, survival over 72 h, FIGS. 21A-C): 50-90%
